Source: PubChem BioAssay AID256 (DTP/NCI, 2004)
Inconclusive results and toxic doses are left out. How the source made its calls: active means survival T/C of 150% or more; inactive means T/C below 125% in these data.

Test system: CD2F1 mice, L1210 leukemia ip, survival T/C
Experiment: NCI In Vivo Anticancer Drug Screen. Data for tumor model L1210 Leukemia (intraperitoneal) in CD2F1 (CDF1) mice
Settings: endpoint: mean survival time, higher = longer survival
In short: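 Each value reflects a quotient of treated over vehicle control outcomes in mice with a transplanted tumor.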

[1] = dose: 100.0 mg/kg/injection, schedule: Q01DX009 (ip), vehicle: saline with Tween-80
[2] = dose: 100.0 mg/kg/injection, schedule: Q04DX003 (ip), vehicle: saline with Tween-80
[3] = dose: 200.0 mg/kg/injection, schedule: Q01DX009 (ip), vehicle: saline with Tween-80
[4] = dose: 200.0 mg/kg/injection, schedule: Q04DX003 (ip), vehicle: saline with Tween-80
[5] = dose: 400.0 mg/kg/injection, schedule: Q01DX009 (ip), vehicle: saline with Tween-80
[6] = dose: 400.0 mg/kg/injection, schedule: Q04DX003 (ip), vehicle: saline with Tween-80

Measured: T/C

O=C(CC(SCCN1CCOCC1)c1ccc([N+](=O)[O-])cc1)c1ccccc1 (stereo not given)
inactive: dose: 100.0 mg/kg/injection, schedule: Q01DX001 (ip), vehicle: Klucel (hydroxypropylcellulose) (HPC) 104 % of control | dose: 200.0 mg/kg/injection, schedule: Q01DX001 (ip), vehicle: Klucel (hydroxypropylcellulose) (HPC) 96 % of control | dose: 400.0 mg/kg/injection, schedule: Q01DX001 (ip), vehicle: Klucel (hydroxypropylcellulose) (HPC) 107 % of control

CCOC(=O)C1CC(=O)C(C(=O)OCC)CC1=O (stereo not given)
inactive: [1] 100 % of control | dose: 100.0 mg/kg/injection, schedule: Q04DX002 (ip), vehicle: saline with Tween-80 107 % of control | [2] 100 % of control | [3] 97 % of control | dose: 200.0 mg/kg/injection, schedule: Q04DX002 (ip), vehicle: saline with Tween-80 98 % of control | [4] 93 % of control | [5] 97 % of control | dose: 400.0 mg/kg/injection, schedule: Q04DX002 (ip), vehicle: saline with Tween-80 102 % of control | [6] 98 % of control

CCN(CCN(C)C(C)(C)C(C)(C)C)C(=O)C(O)(c1ccccc1)c1ccccc1
inactive: dose: 50.0 mg/kg/injection, schedule: Q01DX009 (ip), vehicle: saline with Tween-80 103 % of control | [1] 110 % of control

CC1CCC(C)(C)CC1(C)c1cc(CN(C)C)c(O)c(CN(C)C)c1 (stereo not given)
inactive: dose: 12.5 mg/kg/injection, schedule: Q01DX009 (ip), vehicle: acetone 95 % of control | dose: 25.0 mg/kg/injection, schedule: Q01DX009 (ip), vehicle: acetone 98 % of control | dose: 50.0 mg/kg/injection, schedule: Q01DX009 (ip), vehicle: acetone 98 % of control

CCOC(=O)C(C)(C(=O)OCC)n1cnc2c1c(=O)n(C)c(=O)n2C
inactive: dose: 100.0 mg/kg/injection, schedule: Q01DX005 (ip), vehicle: distilled water + Tween-80 100 % of control | dose: 200.0 mg/kg/injection, schedule: Q01DX005 (ip), vehicle: distilled water + Tween-80 102 % of control | dose: 400.0 mg/kg/injection, schedule: Q01DX005 (ip), vehicle: distilled water + Tween-80 107 % of control

CC1(C(Cl)(Cl)Cl)C=CC(=O)C=C1
inactive: dose: 50.0 mg/kg/injection, schedule: Q04DX003 (ip), vehicle: saline with Tween-80 101 % of control | [2] 101 % of control | [4] 97 % of control

O=[N+]([O-])c1ccc(N2CCOCC2)c([N+](=O)[O-])c1
inactive: [1] 103 % of control | [2] 97 % of control | [3] 100 % of control | [4] 103 % of control | [5] 97 % of control | [6] 100 % of control

CCC1CN2CCc3cc(OC)c(OC)cc3C2CC1CC1c2cc(OC)c(OC)cc2CCN1C(=O)C(Cc1c[nH]c2ccccc12)NC(=O)OC(C)(C)C (stereo not given)
inactive: dose: 8.0 mg/kg/injection, schedule: Q04DX003 (ip), vehicle: saline with Tween-80 93 % of control | dose: 16.0 mg/kg/injection, schedule: Q04DX003 (ip), vehicle: saline with Tween-80 95 % of control | dose: 32.0 mg/kg/injection, schedule: Q04DX003 (ip), vehicle: saline with Tween-80 98 % of control | dose: 64.0 mg/kg/injection, schedule: Q04DX003 (ip), vehicle: saline with Tween-80 89 % of control | dose: 128.0 mg/kg/injection, schedule: Q04DX003 (ip), vehicle: saline with Tween-80 87 % of control

O=C(OCCO)c1ccccc1
inactive: [1] 98 % of control | [2] 95 % of control | [3] 97 % of control | [4] 98 % of control | [5] 97 % of control | [6] 103 % of control
